Experimental findings from US20100015727A1, “METHOD FOR DETERMINING TRANSPORT ACTIVITY OF A TRANSPORT PROTEIN” (BOEHRINGER INGELHEIM INTERNATIONAL GMBH, priority 2006, published 2010) are described below.

In the assay the target is T1, MRP4 (Homo sapiens, UniProt O15439).
T1 construct: infected with a baculovirus construct containing the full-length cDNA encoding MRP4; made in house; host or cells: Hi5 or Sf9 insect cells (baculovirus)
T1 sequence (O15439 1-1325): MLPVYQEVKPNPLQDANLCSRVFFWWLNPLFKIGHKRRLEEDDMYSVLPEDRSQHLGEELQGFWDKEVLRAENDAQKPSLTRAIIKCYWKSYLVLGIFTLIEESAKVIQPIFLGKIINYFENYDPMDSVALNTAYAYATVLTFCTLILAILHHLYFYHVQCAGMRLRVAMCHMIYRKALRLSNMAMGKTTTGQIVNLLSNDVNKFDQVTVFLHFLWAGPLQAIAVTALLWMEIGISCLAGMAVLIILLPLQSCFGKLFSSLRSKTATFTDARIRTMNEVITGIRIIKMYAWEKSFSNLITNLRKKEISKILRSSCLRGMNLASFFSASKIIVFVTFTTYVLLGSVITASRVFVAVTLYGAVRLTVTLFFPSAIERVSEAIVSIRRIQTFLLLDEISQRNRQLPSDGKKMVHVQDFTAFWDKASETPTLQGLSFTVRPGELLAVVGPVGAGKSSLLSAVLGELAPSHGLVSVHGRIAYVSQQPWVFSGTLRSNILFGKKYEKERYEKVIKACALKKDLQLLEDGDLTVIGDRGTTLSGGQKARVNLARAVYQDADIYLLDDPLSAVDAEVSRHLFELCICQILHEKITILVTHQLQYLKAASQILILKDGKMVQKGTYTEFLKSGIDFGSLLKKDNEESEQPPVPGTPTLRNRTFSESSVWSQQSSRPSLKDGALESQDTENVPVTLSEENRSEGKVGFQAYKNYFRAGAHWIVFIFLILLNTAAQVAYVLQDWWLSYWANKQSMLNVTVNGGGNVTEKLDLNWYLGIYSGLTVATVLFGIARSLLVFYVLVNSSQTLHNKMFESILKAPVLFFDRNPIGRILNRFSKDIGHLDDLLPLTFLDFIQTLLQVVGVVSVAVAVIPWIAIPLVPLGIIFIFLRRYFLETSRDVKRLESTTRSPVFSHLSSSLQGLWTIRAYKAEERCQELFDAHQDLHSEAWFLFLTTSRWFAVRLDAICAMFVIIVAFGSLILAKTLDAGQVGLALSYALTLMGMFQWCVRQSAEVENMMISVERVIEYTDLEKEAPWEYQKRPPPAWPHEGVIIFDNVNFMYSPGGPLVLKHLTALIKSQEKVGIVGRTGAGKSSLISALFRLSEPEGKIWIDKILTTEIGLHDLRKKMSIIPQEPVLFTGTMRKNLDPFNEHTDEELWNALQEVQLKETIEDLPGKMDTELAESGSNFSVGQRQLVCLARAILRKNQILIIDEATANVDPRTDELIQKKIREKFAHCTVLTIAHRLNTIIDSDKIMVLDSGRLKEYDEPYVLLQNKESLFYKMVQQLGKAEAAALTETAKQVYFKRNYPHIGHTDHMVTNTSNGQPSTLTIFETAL
Nature of the assay: SPA assay of MRP4 transport activity (3H-folic acid uptake into membrane vesicles). The format is biochemical. Conditions: inhibition of MRP4 transport of 3H-folic acid into membrane vesicles from baculovirus-infected insect cells; Protein A SPA beads, anti-MRP4 rabbit antiserum.

Procedure: • 1) Membrane vesicles from insect cells (Hi5 or Sf9) infected with a baculovirus construct containing the full-length cDNA encoding MRP4 are prepared as described by van Aubel et al. (van Aubel et al., 2002) with some modifications: Hi5 cells are cultured in suspension to a cell density of 1×10^6 cells/ml in Insect-Xpress serum free insect cell medium and infected with baculovirus construct containing the full-length cDNA encoding MRP4. Three days after infection, cells are collected by centrifugation at 3000 rpm for 10 min. […] Protein concentration of the membrane preparation is determined using standard methods, e.g. the BCA protein assay (Pierce, product number 23250). • 2) Determination of transport activity of MRP4: Membrane vesicles prepared in 1) are diluted in Tris/sucrose buffer to a concentration of 3.3 μg protein/μl. […] Luminescence signals are measured with the LEADSeeker or TopCount system after 30 min, 1 h, 2 h, 4 h, or up to 24 h. • 3) Calculation of inhibitory effect of a test compound: The relative transport activities of MRP4 determined in the presence of a test compound is calculated as percentage of luminescence determined in the presence of the test compound compared to luminescence determined in the absence of the test compound.

What is called IC50 is the point on the concentration scale where inhibition reaches its midpoint. The low end stands for inhibition by little substance, the high end for a need for much substance. For the compound `OCCN(CCO)c1nc(N2CCCCC2)c2nc(N(CCO)CCO)nc(N3CCCCC3)c2n1` [Dipyridamole], the IC50 was 35 µM. This lies in the double-digit micromolar range.
